Measured values reported in US20240293405A1, “(1H-PYRROLO[2,3-B]PYRIDIN-1-YL)PYRIMIDIN-2-YL-AMINO-PHENYL-ACRYLAMIDE INHIBITORS OF EGFR FOR USE IN THE TREATMENT OF BRAIN TUMORS” (Dana-Farber Cancer Institute, Inc., priority 2021, published 2024).
pIC50, pKd: −log10 of the molar value. Values joined by “and” are separate entries in the source; they are usually repeats but may differ in a detail not shown here. Equal entries are not always repeated. Where two headings read alike, the source gives them in different places.

How the values were obtained:
BT179 cells = assay: Cell viability, patient-derived GBM line BT179; settings: Homo sapiens, 72 h
Procedure: (§3) Primary human glioblastoma lines BT112, BT179 and BT333 were maintained in NeuroCult proliferation medium (human) (StemCell Technologies) with 20 ng/ml EGF, 10 ng/ml FGF and 0.0002% Heparin.

human BCRP = molecular target: T1, human BCRP (Homo sapiens, UniProt Q9UNQ0); assay: BCRP inhibition (rosuvastatin transport, Caco-2 cells); assay type: in vitro ADME; settings: read-out: apparent IC50, rosuvastatin transport via human BCRP (converted)
T1 construct: endogenous in cells; host or cells: Caco-2 cells
T1 sequence (Q9UNQ0 whole entry): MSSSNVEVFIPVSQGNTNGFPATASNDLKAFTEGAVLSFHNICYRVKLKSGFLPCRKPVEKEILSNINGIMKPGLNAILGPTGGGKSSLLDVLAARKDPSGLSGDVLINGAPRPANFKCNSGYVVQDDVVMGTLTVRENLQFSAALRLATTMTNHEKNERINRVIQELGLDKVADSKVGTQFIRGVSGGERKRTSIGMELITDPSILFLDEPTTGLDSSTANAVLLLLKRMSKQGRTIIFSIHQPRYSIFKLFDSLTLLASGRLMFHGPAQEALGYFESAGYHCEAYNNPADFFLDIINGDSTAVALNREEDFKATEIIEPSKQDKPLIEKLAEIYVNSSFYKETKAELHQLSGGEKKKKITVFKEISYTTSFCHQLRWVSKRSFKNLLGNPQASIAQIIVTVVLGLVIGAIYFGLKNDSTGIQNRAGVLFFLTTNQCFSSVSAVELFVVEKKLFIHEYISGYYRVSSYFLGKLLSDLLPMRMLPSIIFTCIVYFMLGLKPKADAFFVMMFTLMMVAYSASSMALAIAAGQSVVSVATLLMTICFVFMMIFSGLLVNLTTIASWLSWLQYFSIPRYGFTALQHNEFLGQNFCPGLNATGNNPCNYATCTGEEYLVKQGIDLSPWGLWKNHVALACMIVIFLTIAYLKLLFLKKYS
Description: (§1) Further understanding of DDI risk will await definition of Phase 2 doses and exposures.

[1] = molecular target: ALK, EGFR and FLT3 mutants (Homo sapiens, UniProt P00533); assay: Targeted kinase binding constants, mutant kinases (summary); settings: read-out: mutant kinase binding (Kd) for several EGFR single and double mutants
Procedure: Compound 1 and Compound 2 (major metabolite) were evaluated in a panel of 468 human kinases and disease relevant mutant variants. Compound 1 and Compound 2 bound to few non-mutant kinases at <1% of control. […] While there is some variability between Compound 1 and Compound 2, it is clear that both compounds are very effective at binding to a large panel of mutant kinases. […] Binding constant to wild type EGFR was 4.9 nM.

hERG = hERG (Homo sapiens, UniProt Q12809); assay: hERG assay (HEK cells); assay type: cell-based
hERG, sequence (Q12809 whole entry): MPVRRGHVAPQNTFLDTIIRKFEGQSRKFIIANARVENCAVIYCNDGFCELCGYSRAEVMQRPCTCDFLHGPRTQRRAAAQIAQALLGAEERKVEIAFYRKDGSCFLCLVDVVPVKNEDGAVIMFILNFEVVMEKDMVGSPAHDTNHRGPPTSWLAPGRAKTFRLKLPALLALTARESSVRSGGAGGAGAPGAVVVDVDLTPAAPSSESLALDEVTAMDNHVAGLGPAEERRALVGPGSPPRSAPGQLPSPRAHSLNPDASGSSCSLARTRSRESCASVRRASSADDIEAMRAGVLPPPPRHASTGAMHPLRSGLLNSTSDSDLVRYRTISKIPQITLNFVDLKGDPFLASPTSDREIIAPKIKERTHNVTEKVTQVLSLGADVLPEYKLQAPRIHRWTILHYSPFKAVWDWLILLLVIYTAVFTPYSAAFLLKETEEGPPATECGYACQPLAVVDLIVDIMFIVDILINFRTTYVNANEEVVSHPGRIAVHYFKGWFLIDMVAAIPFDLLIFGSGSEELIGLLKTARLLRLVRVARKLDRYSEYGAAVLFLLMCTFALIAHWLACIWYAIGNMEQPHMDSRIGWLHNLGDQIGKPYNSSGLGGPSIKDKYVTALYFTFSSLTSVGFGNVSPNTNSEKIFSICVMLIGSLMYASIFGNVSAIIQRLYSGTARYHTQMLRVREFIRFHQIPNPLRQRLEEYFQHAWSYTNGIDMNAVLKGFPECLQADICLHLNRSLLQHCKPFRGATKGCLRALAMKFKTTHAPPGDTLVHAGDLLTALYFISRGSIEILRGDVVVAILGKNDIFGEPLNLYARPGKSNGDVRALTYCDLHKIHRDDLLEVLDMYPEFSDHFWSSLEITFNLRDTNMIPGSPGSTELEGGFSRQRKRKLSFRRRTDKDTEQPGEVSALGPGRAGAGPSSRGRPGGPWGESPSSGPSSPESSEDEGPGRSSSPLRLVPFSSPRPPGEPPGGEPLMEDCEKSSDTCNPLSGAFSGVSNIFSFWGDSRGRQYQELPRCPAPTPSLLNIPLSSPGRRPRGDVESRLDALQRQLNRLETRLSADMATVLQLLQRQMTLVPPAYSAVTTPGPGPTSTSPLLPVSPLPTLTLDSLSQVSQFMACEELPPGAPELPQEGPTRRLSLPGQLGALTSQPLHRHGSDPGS
Procedure: Compound 1 and/or Compound 2 (active/major metabolite) were evaluated for off-target activity in a large panel of receptors and ion channels, including a human ether-i-go-go-related gene (hERG) assay. Compound 1 was assessed comprehensively in Good Laboratory Practice (GLP) safety pharmacology studies, including studies of cardiovascular, respiratory and central nervous system function.

EGFRvIII = EGFRvIII (Homo sapiens, UniProt P00533, DELINS30-297G); assay: EGFRvIII phosphorylation in U251-EGFRvIII cells (western blot); assay type: cell-based; set-up: expressed in transfected cells; host or cells: U251 (human GBM cell line), retroviral transduction; settings: 20 hours, read-out: IC50 on EGFRvIII phosphorylation (pEGFRvIII1068)
EGFRvIII, sequence (P00533 with tags, fused parts or gaps DELINS30-297G): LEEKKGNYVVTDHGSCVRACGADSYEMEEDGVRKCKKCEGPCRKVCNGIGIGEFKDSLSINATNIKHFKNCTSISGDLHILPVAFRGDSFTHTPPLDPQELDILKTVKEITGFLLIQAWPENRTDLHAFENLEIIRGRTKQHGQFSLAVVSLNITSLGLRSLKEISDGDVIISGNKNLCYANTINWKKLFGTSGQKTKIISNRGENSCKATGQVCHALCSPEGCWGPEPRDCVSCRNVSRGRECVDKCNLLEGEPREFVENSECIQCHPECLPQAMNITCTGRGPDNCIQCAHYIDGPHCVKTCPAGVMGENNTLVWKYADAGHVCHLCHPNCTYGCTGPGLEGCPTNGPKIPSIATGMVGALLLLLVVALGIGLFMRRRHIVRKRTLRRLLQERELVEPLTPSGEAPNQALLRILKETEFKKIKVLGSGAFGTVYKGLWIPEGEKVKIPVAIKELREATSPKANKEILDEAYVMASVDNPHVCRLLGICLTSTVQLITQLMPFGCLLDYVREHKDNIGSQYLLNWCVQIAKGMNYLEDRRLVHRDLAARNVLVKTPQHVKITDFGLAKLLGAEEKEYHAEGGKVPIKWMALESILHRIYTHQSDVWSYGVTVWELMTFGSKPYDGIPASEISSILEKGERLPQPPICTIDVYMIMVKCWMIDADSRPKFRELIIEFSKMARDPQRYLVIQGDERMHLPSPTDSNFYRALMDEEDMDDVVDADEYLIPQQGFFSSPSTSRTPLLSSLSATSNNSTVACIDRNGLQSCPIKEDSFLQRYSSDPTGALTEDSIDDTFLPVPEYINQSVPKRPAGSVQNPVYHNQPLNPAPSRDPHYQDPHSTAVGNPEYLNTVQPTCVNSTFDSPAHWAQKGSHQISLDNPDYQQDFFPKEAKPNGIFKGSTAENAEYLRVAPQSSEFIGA
Description: Anti-a-Tubulin antibody was purchased from Sigma.
In parallel, the conventional human GBM U251 cell line was used as a surrogate model for both in vitro and in vivo studies. U251 cells were engineered to stably express EGFRvIII (U251-EGFRvIII) via retroviral-mediated gene transfer.

BT112 cells = assay: Cell viability, patient-derived GBM line BT112; settings: Homo sapiens, 72 h
Procedure: as §3

[2] = system: NCI-H1975 cells (EGFR L858R/T790M mutation); assay: Cell viability assay, NCI-H1975 (CellTiter-Glo); assay type: cell-based; settings: Homo sapiens; NCI-H1975, 72 hours; read-out: IC50, cell viability
Description: CellTier-Glo (Promega) assay kit (https://www.promega.com/resources/protocols/technical-bulletins/0/celltiter-glo-luminescentcell-viability-assay-protocol/) was used here.

[3] = system: three primary patient-derived GBM cell lines harboring EGFR amplification and/or mutations; assay: Cell viability, three patient-derived GBM cell lines (summary); assay type: cell-based; settings: Homo sapiens; neurosphere culture; read-out: IC50 of cell viability, range over three patient cell lines
Procedure: (§2) Cells were seeded in 96-well plates at a density of 1,000 cells per well and treated with two-fold serial dilutions of compounds with a starting concentration of 20 μM. Cell viability was assessed after three days of treatment by CellTiter-Glo (Promega). Curve fitting analysis and IC50 value determination were performed using GraphPad Prism 8.

[4] = Oral dog dose-range toxicity study; assay type: in vivo
Procedure: In the dog dose-range study, Compound 1 was given to male and female beagle dogs orally by gavage either once (30, 100, 600, 1000 mg/kg) or once daily for 14 days (30, 100, 300 mg/kg/day).
The HNSTD was estimated to be 100 mg/kg/day in this study.

NSCLC brain metastases = NSCLC brain metastases in SCID mice
[5] = Oral rat dose-range toxicity study; assay type: in vivo
Procedure: Male and female Sprague-Dawley rats were given Compound 1 orally by gavage either once (30, 100, 500, 1000 mg/kg/day) or once daily for up to 14 days (30, 100, 300 mg/kg/day). […] […]; this group was terminated on Day 9. […] The STD10 was estimated to be 100 mg/kg/day in this study.

293-EGFRvIII cells = assay: Cell viability of 293-EGFRvIII cells (CellTiter-Glo); assay type: cell-based, human; settings: for pIC50: Homo sapiens, read-out: IC50, viability of 293-EGFRvIII cells
Procedure: as §2

[6] = Oral rat 4-week toxicity study with toxicokinetics; assay type: in vivo, Sprague-Dawley rats
Procedure: Compound 1 (0, 10, 30, and 100 mg/kg/day) was given orally, once daily by gavage to male and female Sprague-Dawley rats for up to 28 days. Morbidity, associated with marked body weight loss, necessitated termination of dosing in the high-dose group on Days 12/13. At this time, 5/sex in the high-dose group were taken to necropsy and 5/sex were started on recovery for the remainder of the study.
There were no obvious sex differences or accumulation (Table 13).
Major histological findings at the interim necropsy (100 mg/kg) included generalized lymphoid depletion, pulmonary edema/inflammation and testicular seminiferous tubule degeneration. All findings except testicular degeneration were reversible (˜14 days) in this study; the reversibility period was not long enough to assess reversibility of testicular changes. […] The STD10 was 30 mg/kg.

[7] = Comparative metabolism and metabolic stability in hepatocytes; assay type: in vitro ADME, human, monkey, dog, rat and mouse
Description: Compound 2 was a major demethylated active metabolite in all species and with the exception of a minor metabolite, M48 in human hepatocytes, all human metabolites were represented in the rat and/or dog, the toxicology species.

P-gp = molecular target: T2, P-gp (Homo sapiens, UniProt P08183); assay: P-glycoprotein inhibition (digoxin transport); assay type: in vitro ADME
T2 construct: expressed in transfected cells; host or cells: MDCKII-MDR1 cells
T2 sequence (P08183 whole entry): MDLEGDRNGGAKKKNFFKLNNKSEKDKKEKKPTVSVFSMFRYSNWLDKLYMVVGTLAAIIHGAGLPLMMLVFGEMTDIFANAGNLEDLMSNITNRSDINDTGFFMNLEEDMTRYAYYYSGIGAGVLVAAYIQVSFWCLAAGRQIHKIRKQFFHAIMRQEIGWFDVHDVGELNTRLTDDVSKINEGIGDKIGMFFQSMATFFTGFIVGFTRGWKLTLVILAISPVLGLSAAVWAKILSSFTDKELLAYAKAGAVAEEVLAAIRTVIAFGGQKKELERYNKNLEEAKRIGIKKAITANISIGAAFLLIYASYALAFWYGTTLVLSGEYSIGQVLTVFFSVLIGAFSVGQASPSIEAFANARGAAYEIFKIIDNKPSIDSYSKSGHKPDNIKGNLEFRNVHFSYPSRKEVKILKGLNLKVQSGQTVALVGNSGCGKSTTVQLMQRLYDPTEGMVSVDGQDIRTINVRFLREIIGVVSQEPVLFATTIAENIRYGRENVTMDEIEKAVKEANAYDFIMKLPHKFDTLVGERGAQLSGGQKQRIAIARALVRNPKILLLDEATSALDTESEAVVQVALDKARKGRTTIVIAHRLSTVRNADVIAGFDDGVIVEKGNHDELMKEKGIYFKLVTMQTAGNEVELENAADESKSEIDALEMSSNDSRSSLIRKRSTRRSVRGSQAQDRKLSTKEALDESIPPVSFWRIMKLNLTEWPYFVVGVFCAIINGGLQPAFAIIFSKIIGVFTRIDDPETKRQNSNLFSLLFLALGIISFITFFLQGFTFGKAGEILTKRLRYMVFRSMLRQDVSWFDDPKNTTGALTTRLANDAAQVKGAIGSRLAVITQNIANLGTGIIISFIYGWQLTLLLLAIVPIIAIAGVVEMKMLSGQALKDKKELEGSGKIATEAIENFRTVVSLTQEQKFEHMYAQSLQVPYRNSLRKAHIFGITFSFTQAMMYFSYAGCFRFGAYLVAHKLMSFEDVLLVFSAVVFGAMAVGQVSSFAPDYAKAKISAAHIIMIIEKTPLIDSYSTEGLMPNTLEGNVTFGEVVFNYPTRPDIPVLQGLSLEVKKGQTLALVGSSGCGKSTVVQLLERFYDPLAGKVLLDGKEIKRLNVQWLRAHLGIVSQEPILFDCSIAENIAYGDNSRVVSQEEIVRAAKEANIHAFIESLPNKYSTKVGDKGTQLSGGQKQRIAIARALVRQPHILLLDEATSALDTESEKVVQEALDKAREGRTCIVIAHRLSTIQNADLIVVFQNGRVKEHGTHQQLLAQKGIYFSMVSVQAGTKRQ
Description: as §1

## C=CC(=O)Nc1cc(Nc2nccc(-n3ccc4cccnc43)n2)c(OC)cc1N(C)CCN(C)C [Compound 1, N-(5-((4-(1H-pyrrolo[2,3-b]pyridin-1-yl)pyrimidin-2-yl)amino)-2-((2-(dimethylamino)ethyl)(methyl)amino)-4-methoxyphenyl)acrylamide]
BT179 cells
  pIC50: 6.05
Human BCRP
  IC50: 3020 nM
[1]
  pKd: > 9.00
hERG
  pIC50: 5.72
  hERG IC100: ~30 µM
EGFRvIII
  pIC50: 6.76 and 6.77
BT112 cells
  pIC50: 5.69
[2]
  pIC50: 7.46
[3]
  pIC50: 5.48 to 6.05
[4]; 30 to 1000 mg/kg
  tolerability of a single oral dose: well tolerated
[4]; 14 days oral, estimated
  HNSTD: 100 mg/kg/day
NSCLC brain metastases; 25 mpk, control 28.5 Days
  Median survival: 80.5 days
NSCLC brain metastases; Compound 1 25-50 mg/kg, osimertinib 25 mg/kg
  brain metastases relative to control post-treatment: Reduced brain metastases
[5]; 30 to 1000 mg/kg
  tolerability of a single oral dose: well tolerated
[5]; 14 days
  toxicity at 30 mg/kg/day: No significant toxicity
[5]; up to 14 days oral, estimated
  STD10: 100 mg/kg/day
293-EGFRvIII cells; HEK293-EGFRvIII cells
  fold more active than erlotinib (viability): 3 fold
  fold more active than gefitinib (viability): 10 fold
293-EGFRvIII cells; 72 h, 3 days treatment, CellTiter-Glo
  pIC50: 5.83
293-EGFRvIII cells; unit as printed in b643 for Compound 1
  pIC50: 5.83
[6]; both sexes, Sprague-Dawley, in vivo, oral, 4-week Rat toxicology
  NOAEL at 28 days: 10 mg/kg
[6]; both, Sprague-Dawley, rat, in vivo
  NOEL for testicular lesions: 10 mg/kg
[6]; both, Sprague-Dawley, rat, in vivo, po
  STD10: 30 mg/kg
[6]; rat
  NOEL for myocardial risk: 100 mg/kg
[6]; rat, in vivo, po, 10 mg/kg
  toxicity at 10 mg/kg: No toxicity
[7]; hepatocytes, species comparison
  metabolic stability: greatest in human hepatocytes
[7]; human, monkey, dog, rat and/or mouse hepatocytes
  number of metabolites detected in hepatocytes: 22
P-gp
  P-gp inhibition: No P-gp inhibition
P-gp; read-out: IC50, P-gp mediated transport of digoxin
  pIC50: < 4.52
